System: MV-4-11 cells
Assay: Gene expression microarray analysis (Affymetrix PrimeView) and GSEA
Type: cell-based, human
Set-up: RFU PODN (11730768_x_at) / Fold change /veh PODN (11730768_x_at) / RFU LINC00158 (11744669_a_at) / Fold change /veh LINC00158 (11744669_a_at) / RFU DUSP10 (11751237_a_at) / Fold change /veh DUSP10 (11751237_a_at) / RFU ID3 (11757404_x_at) / Fold change /veh ID3 (11757404_x_at) / RFU PLEKHG5 (11737974_s_at) / Fold change /veh PLEKHG5 (11737974_s_at) / RFU LRRC4B (11730491_at) / Fold change /veh LRRC4B (11730491_at) / RFU GIMAP4 (11747438_a_at) / Fold change /veh GIMAP4 (11747438_a_at) / RFU KRT8 (11758183_x_at) / Fold change /veh KRT8 (11758183_x_at) / RFU CNN1 (11734310_a_at) / Fold change /veh CNN1 (11734310_a_at) / RFU VPS37D (11726825_at) / Fold change /veh VPS37D (11726825_at) / RFU C10orf10 (11716522_x_at) / Fold change /veh C10orf10 (11716522_x_at) / RFU KIR2DL2 /// KIR2DL4 /// KIR2DL5A /// KIR2DL5B /// KIR2DS1 /// KIR2DS2 /// KIR2DS3 /// KIR2DS4 /// KIR3DL3 /// KIR3DL3 /// KIR3DS1 (11738374_at) / Fold change /veh KIR2DL2 /// KIR2DL4 /// KIR2DL5A /// KIR2DL5B /// KIR2DS1 /// KIR2DS2 /// KIR2DS3 /// KIR2DS4 /// KIR3DL3 /// KIR3DL3 /// KIR3DS1 (11738374_at) / RFU C1QL1 (11718748_at) / Fold change /veh C1QL1 (11718748_at) / RFU TMPRSS4 (11747572_a_at) / Fold change /veh TMPRSS4 (11747572_a_at) / RFU HAMP (11756126_x_at) / Fold change /veh HAMP (11756126_x_at) / RFU RNFT2 (11725882_a_at) / Fold change /veh RNFT2 (11725882_a_at) / RFU NR4A2 (11747474_a_at) / Fold change /veh NR4A2 (11747474_a_at) / RFU ABCC12 (11746883_a_at) / Fold change /veh ABCC12 (11746883_a_at) / RFU TMEM136 (11760407_x_at) / Fold change /veh TMEM136 (11760407_x_at) / RFU CLDN22 /// WWC2 (11732394_at) / Fold change /veh CLDN22 /// WWC2 (11732394_at) / RFU HLA-DPB1 (11760878_x_at) / Fold change /veh HLA-DPB1 (11760878_x_at) / RFU SPINT1 (11716480_a_at) / Fold change /veh SPINT1 (11716480_a_at) / RFU GAP43 (11754022_s_at) / Fold change /veh GAP43 (11754022_s_at) / RFU A4GNT (11735810_at) / Fold change /veh A4GNT (11735810_at) / RFU PRB3 (11715151_x_at) / Fold change /veh PRB3 (11715151_x_at) / RFU TUBB4B (11761932_at) / Fold change /veh TUBB4B (11761932_at) / RFU CAPN14 (11732068_a_at) / Fold change /veh CAPN14 (11732068_a_at) / RFU TMCC2 (11721928_a_at) / Fold change /veh TMCC2 (11721928_a_at) / RFU IRGQ (11745062_a_at) / Fold change /veh IRGQ (11745062_a_at) / RFU FAM174B (11720279_a_at) / Fold change /veh FAM174B (11720279_a_at) / RFU TMPRSS4 (11748680_a_at) / Fold change /veh TMPRSS4 (11748680_a_at) / RFU FAM212B (11763350_a_at) / Fold change /veh FAM212B (11763350_a_at) / RFU PLEKHG5 (11743358_a_at) / Fold change /veh PLEKHG5 (11743358_a_at) / RFU ZSCAN30 (11745921_a_at) / Fold change /veh ZSCAN30 (11745921_a_at) / RFU CMKLR1 (11741424_a_at) / Fold change /veh CMKLR1 (11741424_a_at) / RFU LOC101060620 /// MAPK8IP1 (11723275_at) / Fold change /veh LOC101060620 /// MAPK8IP1 (11723275_at) / RFU SPTSSB (11747773_x_at) / Fold change /veh SPTSSB (11747773_x_at) / RFU PRSS12 (11739890_at) / Fold change /veh PRSS12 (11739890_at) / RFU BIN1 (11741810_x_at) / Fold change /veh BIN1 (11741810_x_at) / RFU WNT11 (11732464_a_at) / Fold change /veh WNT11 (11732464_a_at) / RFU C10orf10 (11716521_a_at) / Fold change /veh C10orf10 (11716521_a_at) / RFU C5orf56 (11738089_at) / Fold change /veh C5orf56 (11738089_at) / RFU CYB561 (11721691_x_at) / Fold change /veh CYB561 (11721691_x_at) / RFU ANKRD19P (11752326_a_at) / Fold change /veh ANKRD19P (11752326_a_at) / RFU OR2T12 /// OR2T33 /// OR2T8 (11738714_s_at) / Fold change /veh OR2T12 /// OR2T33 /// OR2T8 (11738714_s_at) / RFU VCAN (11748164_a_at) / Fold change /veh VCAN (11748164_a_at) / RFU JSRP1 (11732532_at) / Fold change /veh JSRP1 (11732532_at) / RFU KRTAP10-11 (11738290_x_at) / Fold change /veh KRTAP10-11 (11738290_x_at) / RFU MYO3A (11730013_a_at) / Fold change /veh MYO3A (11730013_a_at) / RFU EBF3 (11725865_a_at) / Fold change /veh EBF3 (11725865_a_at) / RFU CAMK2N1 (11719241_x_at) / Fold change /veh CAMK2N1 (11719241_x_at) / RFU C5orf56 (11738088_a_at) / Fold change /veh C5orf56 (11738088_a_at) / RFU OLFML3 (11715873_a_at) / Fold change /veh OLFML3 (11715873_a_at) / RFU LOC100653217 /// NTM (11731650_a_at) / Fold change /veh LOC100653217 /// NTM (11731650_a_at) / RFU MAPK11 (11762145_a_at) / Fold change /veh MAPK11 (11762145_a_at) / RFU FIZ1 (11724087_x_at) / Fold change /veh FIZ1 (11724087_x_at) / RFU OASL (11726364_x_at) / Fold change /veh OASL (11726364_x_at) / RFU SOX15 (11748057_x_at) / Fold change /veh SOX15 (11748057_x_at) / RFU CD79A (11719716_a_at) / Fold change /veh CD79A (11719716_a_at) / RFU HIST1H1D (11736915_at) / Fold change /veh HIST1H1D (11736915_at) / RFU CASKIN2 (11723855_a_at) / Fold change /veh CASKIN2 (11723855_a_at) / RFU LOC730098 (11760151_x_at) / Fold change /veh LOC730098 (11760151_x_at) / RFU OR4N2 (11742367_at) / Fold change /veh OR4N2 (11742367_at) / RFU PRRT2 (11749266_a_at) / Fold change /veh PRRT2 (11749266_a_at) / RFU SNX32 (11753110_a_at) / Fold change /veh SNX32 (11753110_a_at) / RFU CDHR5 (11726645_a_at) / Fold change /veh CDHR5 (11726645_a_at) / RFU RCAN1 (11760418_a_at) / Fold change /veh RCAN1 (11760418_a_at) / RFU FAM167A (11723789_a_at) / Fold change /veh FAM167A (11723789_a_at) / RFU FAM26E (11764081_at) / Fold change /veh FAM26E (11764081_at) / RFU ISYNA1 (11749810_s_at) / Fold change /veh ISYNA1 (11749810_s_at) / RFU ACY1 (11761880_at) / Fold change /veh ACY1 (11761880_at) / RFU 11764098_at / Fold change /veh 11764098_at / RFU SAMD14 (11745864_x_at) / Fold change /veh SAMD14 (11745864_x_at) / RFU NPB (11741838_a_at) / Fold change /veh NPB (11741838_a_at) / RFU TMPRSS6 (11731388_a_at) / Fold change /veh TMPRSS6 (11731388_a_at) / RFU KRTAP10-2 (11738614_at) / Fold change /veh KRTAP10-2 (11738614_at) / RFU ARHGAP8 /// PRR5-ARHGAP8 (11727945_x_at) / Fold change /veh ARHGAP8 /// PRR5-ARHGAP8 (11727945_x_at) / RFU KRTAP5-7 /// NADSYN1 (11734609_at) / Fold change /veh KRTAP5-7 /// NADSYN1 (11734609_at) / RFU RASL12 (11751679_a_at) / Fold change /veh RASL12 (11751679_a_at) / RFU CDKN2B (11736163_a_at) / Fold change /veh CDKN2B (11736163_a_at) / RFU PRF1 (11729649_at) / Fold change /veh PRF1 (11729649_at) / RFU, ZNF638 /// ZNF638-IT1 / Fold change vs veh, ZNF638 /// ZNF638-IT1 / RFU, PANK3 / Fold change vs veh, PANK3 / RFU, SH3YL1 / Fold change vs veh, SH3YL1 / RFU, ZEB2 / Fold change vs veh, ZEB2 / RFU, NRIP1 / Fold change vs veh, NRIP1 / RFU, PTTG1IP / Fold change vs veh, PTTG1IP / RFU, CAPN2 / Fold change vs veh, CAPN2 / RFU, MED14 / Fold change vs veh, MED14 / RFU, SNORA58 / Fold change vs veh, SNORA58 / RFU, C1orf63 / Fold change vs veh, C1orf63 / RFU, LRRFIP1 / Fold change vs veh, LRRFIP1 / RFU, NDUFAF7 / Fold change vs veh, NDUFAF7 / RFU, SLC12A2 / Fold change vs veh, SLC12A2 / RFU, IBTK / Fold change vs veh, IBTK / RFU, ESF1 / Fold change vs veh, ESF1 / Fold change vs veh, TMEM50B / RFU, TAOK1 / Fold change vs veh, TAOK1 / RFU, ACBD3 / Fold change vs veh, ACBD3 / RFU, TMA16 / Fold change vs veh, TMA16 / RFU, RWDD3 / Fold change vs veh, RWDD3 / RFU, BCAT1 / Fold change vs veh, BCAT1 / RFU, EDEM3 / Fold change vs veh, EDEM3 / RFU, TMEM33 / Fold change vs veh, TMEM33 / RFU, WDR75 / Fold change vs veh, WDR75 / RFU, AHCTF1 / Fold change vs veh, AHCTF1 / RFU, TFRC / Fold change vs veh, TFRC / RFU, ZDHHC17 / Fold change vs veh, ZDHHC17 / RFU, NOM1 / Fold change vs veh, NOM1 / RFU, ARL8B / Fold change vs veh, ARL8B / RFU, ZBTB11 / Fold change vs veh, ZBTB11 / RFU, TAMM41 / Fold change vs veh, TAMM41 / RFU, KIAA1704 /// LOC100996395 / Fold change vs veh, KIAA1704 /// LOC100996395 / RFU, ING1 / Fold change vs veh, ING1 / RFU, TRMT61B / Fold change vs veh, TRMT61B / RFU, FUBP3 / Fold change vs veh, FUBP3 / RFU, TP53 / Fold change vs veh, TP53 / RFU, TNKS2 / Fold change vs veh, TNKS2 / RFU, ZFP14 / Fold change vs veh, ZFP14 / RFU, ACTR2 / Fold change vs veh, ACTR2 / RFU, PPP3R1 / Fold change vs veh, PPP3R1 / RFU, PIK3R1 / Fold change vs veh, PIK3R1 / RFU, HNRNPA1 / Fold change vs veh, HNRNPA1 / RFU, RNF170 / Fold change vs veh, RNF170 / RFU, ZNF28 / Fold change vs veh, ZNF28 / RFU, RNGTT / Fold change vs veh, RNGTT / RFU, OGT / Fold change vs veh, OGT / RFU, BRD1 / Fold change vs veh, BRD1 / RFU, MARS / Fold change vs veh, MARS / RFU, ZNF655 / Fold change vs veh, ZNF655 / RFU, FAHD1 / Fold change vs veh, FAHD1 / RFU, BDP1 / Fold change vs veh, BDP1 / RFU, LRRCC1 / Fold change vs veh, LRRCC1 / RFU, ARID1A / Fold change vs veh, ARID1A / RFU, ZNF146 / Fold change vs veh, ZNF146 / RFU, ZNF330 / Fold change vs veh, ZNF330 / RFU, GPN3 / Fold change vs veh, GPN3 / RFU, C9orf123 / Fold change vs veh, C9orf123 / RFU, N4BP2L2 / Fold change vs veh, N4BP2L2 / RFU, ARFIP1 / Fold change vs veh, ARFIP1 / RFU, FAM179B / Fold change vs veh, FAM179B / RFU, BCL10 / Fold change vs veh, BCL10 / RFU, UHRF1BP1L / Fold change vs veh, UHRF1BP1L / RFU, BET1 / Fold change vs veh, BET1 / RFU, CNOT2 / Fold change vs veh, CNOT2 / RFU, ZNF268 / Fold change vs veh, ZNF268 / Fold change vs veh, ZNF507 / RFU, DGCR2 / Fold change vs veh, DGCR2 / RFU, WDSUB1 / Fold change vs veh, WDSUB1 / Fold change vs veh, HSP90B1 /// MIR3652 / RFU, ADSS / Fold change vs veh, ADSS / RFU, GK / Fold change vs veh, GK / RFU, ZNF148 / Fold change vs veh, ZNF148 / RFU, TAF9 / Fold change vs veh, TAF9 / RFU, SLC1A5 / Fold change vs veh, SLC1A5 / RFU, SLMO2 / Fold change vs veh, SLMO2 / RFU, ABCC4 / Fold change vs veh, ABCC4 / RFU, LOC101060439 /// RAP1B / Fold change vs veh, LOC101060439 /// RAP1B / RFU, RFX7 / Fold change vs veh, RFX7 / RFU, GTPBP10 / Fold change vs veh, GTPBP10 / RFU, CNEP1R1 / Fold change vs veh, CNEP1R1 / RFU, BIVM-ERCC5 /// ERCC5 / Fold change vs veh, BIVM-ERCC5 /// ERCC5 / RFU, ILF3 / Fold change vs veh, ILF3 / RFU 11762660_at / Fold change /veh 11762660_at / RFU VCAN (11757783_s_at) / Fold change /veh VCAN (11757783_s_at) / RFU DDX43 (11728927_at) / Fold change /veh DDX43 (11728927_at) / RFU KRT8 (11758188_x_at) / Fold change /veh KRT8 (11758188_x_at) / RFU NKD1 (11759106_at) / Fold change /veh NKD1 (11759106_at) / RFU SRD5A1 (11742802_a_at) / Fold change /veh SRD5A1 (11742802_a_at) / RFU TPSAB1 /// TPSB2 (11721975_s_at) / Fold change /veh TPSAB1 /// TPSB2 (11721975_s_at) / RFU GSTM3 (11746129_a_at) / Fold change /veh GSTM3 (11746129_a_at) / RFU IL23R (11737362_x_at) / Fold change /veh IL23R (11737362_x_at) / RFU TMEM51 (11727254_a_at) / Fold change /veh TMEM51 (11727254_a_at) / RFU PIWIL2 (11732686_x_at) / Fold change /veh PIWIL2 (11732686_x_at) / RFU ORM1 (11744905_x_at) / Fold change /veh ORM1 (11744905_x_at) / RFU CCDC152 (11743942_at) / Fold change /veh CCDC152 (11743942_at) / RFU ECM1 (11717891_a_at) / Fold change /veh ECM1 (11717891_a_at) / RFU IL23R (11748794_a_at) / Fold change /veh IL23R (11748794_a_at) / RFU TNFAIP8L3 (11732012_x_at) / Fold change /veh TNFAIP8L3 (11732012_x_at) / RFU MBOAT4 (11741988_at) / Fold change /veh MBOAT4 (11741988_at) / RFU 11764193_at / Fold change /veh 11764193_at / RFU TMEM53 (11763286_at) / Fold change /veh TMEM53 (11763286_at) / RFU MAGEB2 (11727129_at) / Fold change /veh MAGEB2 (11727129_at) / RFU TMEM200A (11744735_a_at) / Fold change /veh TMEM200A (11744735_a_at) / RFU CCDC152 (11751479_a_at) / Fold change /veh CCDC152 (11751479_a_at) / RFU FAM211A (11726209_a_at) / Fold change /veh FAM211A (11726209_a_at) / RFU RGS16 (11746705_a_at) / Fold change /veh RGS16 (11746705_a_at) / RFU VCAN (11755009_s_at) / Fold change /veh VCAN (11755009_s_at) / RFU RHOB (11743442_s_at) / Fold change /veh RHOB (11743442_s_at) / RFU RGS16 (11720943_a_at) / Fold change /veh RGS16 (11720943_a_at) / RFU RGS16 (11720944_at) / Fold change /veh RGS16 (11720944_at) / RFU, VPS4B / Fold change vs veh, VPS4B / RFU, CREB1 / Fold change vs veh, CREB1 / RFU, DNAJC13 / Fold change vs veh, DNAJC13 / RFU, GNAQ / Fold change vs veh, GNAQ / RFU, CDK5R1 / Fold change vs veh, CDK5R1 / RFU, ZRANB3 / Fold change vs veh, ZRANB3 / RFU, CUL4A / Fold change vs veh, CUL4A / RFU, CCNY / Fold change vs veh, CCNY / RFU, UFL1 / Fold change vs veh, UFL1 / RFU, COG3 / Fold change vs veh, COG3 / RFU, DIAPH2 / Fold change vs veh, DIAPH2 / RFU, SKA2 / Fold change vs veh, SKA2 / RFU, AFF3 / Fold change vs veh, AFF3 / RFU, LMF1 / Fold change vs veh, LMF1 / RFU, IPO11 / Fold change vs veh, IPO11 / RFU, DFFB / Fold change vs veh, DFFB / RFU, FOXP1 / Fold change vs veh, FOXP1 / RFU, CARD8 / Fold change vs veh, CARD8 / RFU, STRN3 / Fold change vs veh, STRN3 / RFU, ADK / Fold change vs veh, ADK / RFU, RASSF2 / Fold change vs veh, RASSF2 / RFU, WIPF1 / Fold change vs veh, WIPF1 / RFU, LARP1B / Fold change vs veh, LARP1B / RFU, RASA1 / Fold change vs veh, RASA1 / RFU, RB1 / Fold change vs veh, RB1 / RFU, PPFIA1 / Fold change vs veh, PPFIA1 / RFU, MAT2A / Fold change vs veh, MAT2A / RFU, CCT5 / Fold change vs veh, CCT5 / RFU, WDR92 / Fold change vs veh, WDR92 / RFU, CUX1 / Fold change vs veh, CUX1 / RFU, TTC7A / Fold change vs veh, TTC7A / RFU, TMEM135 / Fold change vs veh, TMEM135 / RFU, DEPTOR / Fold change vs veh, DEPTOR / RFU, CPM / Fold change vs veh, CPM / RFU, DNAJB6 / Fold change vs veh, DNAJB6 / RFU, CACNA2D3 / Fold change vs veh, CACNA2D3 / RFU, DTX4 / Fold change vs veh, DTX4 / RFU, TFCP2 / Fold change vs veh, TFCP2 / RFU, GMCL1 /// GMCL1P1 / Fold change vs veh, GMCL1 /// GMCL1P1 / RFU, AEBP2 / Fold change vs veh, AEBP2 / RFU, SNHG1 /// SNORD22 /// SNORD25 /// SNORD26 /// SNORD27 /// SNORD28 /// SNORD29 /// SNORD31 / Fold change vs veh, SNHG1 /// SNORD22 /// SNORD25 /// SNORD26 /// SNORD27 /// SNORD28 /// SNORD29 /// SNORD31 / Fold change (Aza/veh), C12orf56 (ProbeSet 11735607_a_at) / Fold change (ACY-1035/veh), C12orf56 (ProbeSet 11735607_a_at) / Fold change (Aza/veh), FGFR1OP (ProbeSet 11751329_s_at) / Fold change (ACY-1035/veh), FGFR1OP (ProbeSet 11751329_s_at) / Fold change (Aza/veh), VPS36 (ProbeSet 11739960_a_at) / Fold change (ACY-1035/veh), VPS36 (ProbeSet 11739960_a_at) / RFU SYPL1 (11715823_x_at) / Fold change /veh SYPL1 (11715823_x_at) / RFU IGFBP7 (11715501_s_at) / Fold change /veh IGFBP7 (11715501_s_at) / RFU REEP3 (11722064_at) / Fold change /veh REEP3 (11722064_at) / RFU IGLL1 (11728026_x_at) / Fold change /veh IGLL1 (11728026_x_at): dose or concentration left out as unconfirmed
Details: MV-4-11 cells, 48 hours

Nc1ccc(-c2cccs2)cc1NC(=O)c1ccc2c(c1)cc(C1CC1)n2CCN1CCOCC1 [ACY-1035]
RFU NPB (11741838_a_at): 77.64 RFU
